Measured values published in article PMC9667936, “Functional mapping of the 14-3-3 hub protein as a guide to design 14-3-3 molecular glues” (Chemical Science, 2022).
Where a SMILES comes first, the peptide text is derived from it.

T1: 14-3-3γ/ChREBP (Homo sapiens, UniProt P61981+Q9NP71)
T1 construct: made in house; host or cells: E. coli NiCo21 (DE3) for 14-3-3 gamma; ChREBP is a synthetic peptide
T1 sequence (P61981 1-247): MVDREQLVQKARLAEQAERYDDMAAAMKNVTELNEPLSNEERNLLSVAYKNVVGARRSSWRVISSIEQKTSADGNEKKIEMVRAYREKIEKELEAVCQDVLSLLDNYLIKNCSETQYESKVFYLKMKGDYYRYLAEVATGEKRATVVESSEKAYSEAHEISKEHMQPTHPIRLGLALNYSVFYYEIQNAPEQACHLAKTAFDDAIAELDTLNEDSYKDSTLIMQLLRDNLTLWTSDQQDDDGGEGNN
T1 sequence (Q9NP71 118-142 partner limits assumed): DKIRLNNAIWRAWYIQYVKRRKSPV

T2: ChREBP peptide (Homo sapiens, UniProt Q9NP71)
T2 chain: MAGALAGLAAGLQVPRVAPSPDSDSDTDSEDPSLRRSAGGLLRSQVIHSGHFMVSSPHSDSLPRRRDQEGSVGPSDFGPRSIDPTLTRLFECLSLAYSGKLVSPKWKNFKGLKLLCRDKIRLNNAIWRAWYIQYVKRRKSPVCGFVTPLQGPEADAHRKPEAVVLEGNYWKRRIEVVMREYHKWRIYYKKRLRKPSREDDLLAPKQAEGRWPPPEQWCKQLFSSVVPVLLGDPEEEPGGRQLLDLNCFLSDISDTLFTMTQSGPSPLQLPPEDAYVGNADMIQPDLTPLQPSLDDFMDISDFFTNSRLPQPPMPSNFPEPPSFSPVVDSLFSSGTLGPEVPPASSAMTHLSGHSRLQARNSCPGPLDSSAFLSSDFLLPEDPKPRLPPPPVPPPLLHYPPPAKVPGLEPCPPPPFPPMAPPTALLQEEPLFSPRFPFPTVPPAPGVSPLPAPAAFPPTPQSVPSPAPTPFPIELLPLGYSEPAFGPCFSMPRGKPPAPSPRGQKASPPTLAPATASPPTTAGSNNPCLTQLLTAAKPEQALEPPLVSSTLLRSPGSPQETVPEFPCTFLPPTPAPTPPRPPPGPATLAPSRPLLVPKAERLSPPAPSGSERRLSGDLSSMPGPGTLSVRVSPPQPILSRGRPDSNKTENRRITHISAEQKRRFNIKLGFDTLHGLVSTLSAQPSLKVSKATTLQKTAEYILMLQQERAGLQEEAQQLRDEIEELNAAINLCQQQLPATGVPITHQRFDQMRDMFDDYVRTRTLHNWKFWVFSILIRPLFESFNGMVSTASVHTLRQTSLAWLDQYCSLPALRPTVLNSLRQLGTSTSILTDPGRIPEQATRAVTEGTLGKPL

B1: 14-3-3γ (protein)
chain: VDREQLVQKARLAEQAERYDDMAAAMKNVTELNEPLSNEERNLLSVAYKNVVGARRSSWRVISSIEQKTSADGNEKKIEMVRAYREKIEKELEAVCQDVLSLLDNYLIKNCSETQYESKVFYLKMKGDYYRYLAEVATGEKRATVVESSEKAYSEAHEISKEHMQPTHPIRLGLALNYSVFYYEIQNAPEQACHLAKTAFDDAIAELDTLNEDSYKDSTLIMQLLRDNLTLWTSDQQDDDGGEGNN

How the values were obtained:
14-3-3γ/ChREBP = biological target: T1, 14-3-3γ/ChREBP; assay: 2D FA titration of 14-3-3/ChREBP and cooperativity analysis with thermodynamic equilibrium model; format: binding; conditions: determined by the thermodynamic model from 2D FA titrations; 95% confidence interval; read-out: apparent binding affinity of ChREBP for 14-3-3 (K^IID)
Description: a four-parameter logistic model (4PL). Each measurement was performed in two independent […]
Fluorescence anisotropy (FA) - 2D-14-3-3/ChREBP titrations: 14-3-3γ was titrated in a 2-fold dilution series (starting at 300 µM 14-3-3γ) to 20 nM of fluorescein-labeled peptide 2d in FA buffer (10 mM HEPES pH 7.4, 150 mM NaCl, 0.1% (v/v) Tween20, 0.1% (w/v) BSA) in presence of 2-fold dilution series of unlabeled ChREBP peptide (0.01-10 µM). Dilution series were made in a polystyrene (non-binding) low-volume Corning Black Round Bottom 384-well plates (Corning 4514 or 4511). Measurements were performed directly after plate preparation, using a Tecan Infinite F500 plate reader at room temperature (lex: 485 ± 20 nm; lem: 535 ± 25 nm; mirror: Dichroic 510; flashes: 20; integration time: 50 ms; settle time:
0 ms; gain: optimal; and Z-position: calculated from well). Wells containing only FITC-peptide were used to set as G-factor at 35 mP. All data were analyzed using GraphPad Prism (7.00) for Windows and fitted using a four-parameter logistic model (4PL). […]
with R = 14-3-3, P = non-natural peptide (labelled), and C = ChREBP. The framework determined based on this system description the equilibrium equations needed to determine KDII and α. […] From this the model determined the KDII and α (with 95% confidence interval) and the error-landscape of the determine parameters. […]

ChREBP peptide = biological target: T2, ChREBP peptide; assay: 2D fluorescence anisotropy titration, thermodynamic equilibrium model fit

| Molecule | Kd (14-3-3γ/ChREBP) | Kd (ChREBP peptide) |
| --- | --- | --- |
| CC[C@H](C)[C@H](NC(=O)[C@H](C)NC(=O)[C@H](CC(N)=O)NC(=O)[C@H](CC(N)=O)NC(=O)[C@H](CC(C)C)NC(=O)[C@H](CCCNC(=N)N)NC(=O)[C@@H](NC(=O)[C@H](CCCCN)NC(=O)[C@H](CC(=O)O)NC(C)=O)[C@@H](C)CC)C(=O)N[C@@H](Cc1c[nH]c2ccccc12)C(=O)N[C@@H](CCCNC(=N)N)C(=O)N[C@@H](C)C(=O)N[C@@H](Cc1c[nH]c2ccccc12)C(=O)N[C@@H](Cc1ccc(O)cc1)C(=O)N[C@H](C(=O)N[C@@H](CCC(N)=O)C(=O)N[C@@H](Cc1ccc(O)cc1)C(=O)N[C@H](C(=O)N[C@@H](CCCCN)C(=O)N[C@@H](CCCNC(=N)N)C(=O)N[C@@H](CCCNC(=N)N)C(=O)N[C@@H](CCCCN)C(=O)N[C@@H](CO)C(=O)N1CCC[C@H]1C(=O)N[C@H](C(N)=O)C(C)C)C(C)C)[C@@H](C)CC [ChREBP, reference compound] (Ac-DKIRLNNAIWRAWYIQYVKRRKSPV-NH2) | 1600 nM | – |
| B1 | – | 1600 nM |
